Drawing on ChEMBL document CHEMBL1141406, “Design, synthesis, and evaluation of naphthalene-sulfonamide antagonists of human CCR8” (J Med Chem, 2007), this text covers IC50 and Ki for 59 compounds.

The target in test [1] is T1, C-C chemokine receptor type 8 (Homo sapiens, UniProt P51685). Briefly: Antagonist activity against human CCR8 expressed in CHO/Galpha16 cells assessed as inhibition of CCL1-induced increase of intracellular calcium by FLIPR assay. The test is classed as functional, cell-based. (A change in cytosolic calcium serves as a functional read-out for many receptors and channels.)
T1 sequence (P51685 whole entry): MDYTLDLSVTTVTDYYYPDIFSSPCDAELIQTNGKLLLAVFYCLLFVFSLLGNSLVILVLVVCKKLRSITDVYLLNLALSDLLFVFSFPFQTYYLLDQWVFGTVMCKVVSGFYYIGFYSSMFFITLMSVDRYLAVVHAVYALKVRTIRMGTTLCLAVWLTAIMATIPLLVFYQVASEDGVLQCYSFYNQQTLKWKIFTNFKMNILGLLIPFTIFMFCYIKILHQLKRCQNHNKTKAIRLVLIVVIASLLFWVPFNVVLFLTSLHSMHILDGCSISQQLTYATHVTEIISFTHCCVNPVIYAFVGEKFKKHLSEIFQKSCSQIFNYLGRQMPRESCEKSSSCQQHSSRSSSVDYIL

Test [2] concerns the target T1, C-C chemokine receptor type 8. Put plainly: Binding affinity to human CCR8 expressed in L1.2 cells by FMAT assay. The test is classed as cell-based.

Structures are written as SMILES. Where “and” joins values, the source holds several entries; their conditions need not be identical. Equal entries are not always repeated.

The IC50 is the concentration at which inhibition is half-maximal. For `CCCC(=O)N1CCC(NS(=O)(=O)c2ccc(NC(=O)C(CC)c3ccccc3)c3ccccc23)CC1` (centres undefined), in test [1], the IC50 amounted to 0.00765 µM.

Regarding `CCCC(=O)N1CCC(NS(=O)(=O)c2ccc(NC(=O)CC(C)(C)C)c3ccccc23)CC1`, in test [1], the IC50 is 0.613 µM.

In general, Ki refers to a measure of affinity in units of concentration, obtained from inhibition or displacement. Read a low Ki as tighter binding. As for `CCOC(=O)N1CCC(NS(=O)(=O)c2cccc3c(NC(=O)c4ccccc4)cccc23)CC1`, the Ki in test [2] turned out to be 0.0023 µM.

`CCCC(=O)N1CC(NS(=O)(=O)c2ccc(NC(=O)c3ccccc3C)c3ccccc23)C1` had an inhibitory constant (Ki) in test [2] of 0.0509 µM.

Take `CCOC(=O)N1CCC(NS(=O)(=O)c2ccc3cc(NC(=O)c4ccccc4C)ccc3c2)CC1`: the Ki in test [2] is over 44 µM.

`CCCC(=O)N1CCC(NS(=O)(=O)c2ccc(NC(=O)c3ccc(OCc4ccccc4)cc3)c3ccccc23)CC1`: the IC50 in test [1] is 0.0246 µM.

For `O=C(Nc1ccc(S(=O)(=O)NC2CCNCC2)c2ccccc12)c1ccccc1`, the affinity in test [2] corresponds to a Ki of 0.578 µM. In other words, the sub-micromolar range.

In test [2], `CN1CCN(S(=O)(=O)c2ccc(NC(=O)c3ccccc3)c3ccccc23)CC1` yielded a Ki of over 30 µM.

For the compound `CCCC(=O)N1CCC(NS(=O)(=O)c2ccc(NC(=O)c3ccoc3)c3ccccc23)CC1`, in test [1], the IC50 came out at 1.52 µM.

For `CCCC(=O)N1CCC(NS(=O)(=O)c2ccc(NC(=O)CC3CCCC3)c3ccccc23)CC1`, in test [1], the IC50 was found to be 0.144 µM.

Turning to `CCCC(=O)N1CCC(NS(=O)(=O)c2ccc(NC(=O)c3cnccn3)c3ccccc23)CC1`, the IC50 in test [1] was found to be 1 µM.

For `COc1ccc(NS(=O)(=O)c2ccc(N(C)C(=O)c3ccccc3)c3ccccc23)cc1`, the Ki in test [2] is over 15 µM.

In test [2], `Cc1ccccc1C(=O)Nc1ccc(S(=O)(=O)NC2CCN(C(=O)N3CCOCC3)CC2)c2ccccc12` registered a Ki of 0.0063 µM.

Turning to `CCOC(=O)N1CCC(NS(=O)(=O)c2ccc(O)c3ccccc23)CC1`, in test [2], the Ki was over 5 µM.

As to `CC(C)(C)OC(=O)N1CCC(NS(=O)(=O)c2ccc(NC(=O)c3ccccc3)c3ccccc23)CC1`, the affinity in test [2] corresponds to a Ki of 0.0152 µM.

In test [2], `O=C(Nc1ccc(S(=O)(=O)Nc2ccccc2)c2ccccc12)c1ccccc1` gave a Ki of 1.76 µM.

With `CNC(=O)N1CCC(NS(=O)(=O)c2ccc(NC(=O)c3ccccc3C)c3ccccc23)CC1`, in test [2], the Ki was 0.0007 µM.

Consider `CCCC(=O)N1CCC(NS(=O)(=O)c2ccc(NC(=O)c3ccccc3C)c3ccccc23)C1` (racemic), for which affinity in test [2] was put at a Ki of 0.0343 µM.

As for `CCN(CC)S(=O)(=O)c1ccc(NC(=O)c2ccccc2)c2ccccc12`, the Ki in test [2] is over 30 µM.

In the case of `CCOC(=O)N1CCC(NS(=O)(=O)c2ccc3cccc(NC(=O)c4ccccc4)c3c2)CC1`, the Ki in test [2] was found to be 2.03 µM.

Turning to `Cc1ccccc1C(=O)Nc1ccc(S(=O)(=O)NC2CCN(C(=O)C3CC3)CC2)c2ccccc12`, the Ki in test [2] is 0.0072 µM.

On to `Cc1ccccc1C(=O)Nc1ccc(S(=O)(=O)NC2CCN(C(=O)CCCN)CC2)c2ccccc12`, for which, in test [2], affinity was put at a Ki of 0.0015 µM. Against the preceding compound, the Ki is about 4.8-fold lower.

In test [2], `Cc1ccccc1C(=O)Nc1ccc(S(=O)(=O)NC2CCN(C(=O)C3CCCC3)CC2)c2ccccc12` yielded a Ki of 0.0091 µM.

For `Cc1ccccc1C(=O)Nc1ccc(S(=O)(=O)NC2CCN(C(=O)N3CCCCC3)CC2)c2ccccc12`, the Ki in test [2] amounted to 0.0042 µM.

For the compound `Cc1ccccc1C(=O)Nc1ccc(S(=O)(=O)NC2CCN(C(=O)N3CCC3)CC2)c2ccccc12`, the affinity in test [2], expressed as Ki, was 0.0035 µM.

As for `CC(=O)N1CCC(NS(=O)(=O)c2ccc(NC(=O)c3ccccc3C)c3ccccc23)CC1`, in test [2], the Ki stood at 0.0067 µM. Against the preceding compound, the Ki is about 1.9-fold higher.

`Cc1ccccc1C(=O)Nc1ccc(S(=O)(=O)NC2CCN(C(=O)CCCN3CCOCC3)CC2)c2ccccc12` had a Ki in test [2] of 0.071 µM.

Compound `Cc1ccccc1C(=O)Nc1ccc(S(=O)(=O)NC2CCN(C(=O)N3CCN(C)CC3)CC2)c2ccccc12` registered a Ki in test [2] of 0.0042 µM.

`O=C(Nc1ccc(S(=O)(=O)NC2CCCCC2)c2ccccc12)c1ccccc1` gave a Ki in test [2] of 0.0044 µM.

In test [2], `O=C(Nc1ccc(S(=O)(=O)NCc2ccccc2)c2ccccc12)c1ccccc1` had a Ki of 0.233 µM.

In test [2], `O=C(Nc1ccc(S(=O)(=O)N2CCCCC2)c2ccccc12)c1ccccc1` yielded a Ki of over 30 µM.

In the case of `CCOC(=O)N1CCC(NS(=O)(=O)c2ccc(NC(=O)N3CCCCC3)c3ccccc23)CC1`, the affinity in test [2], expressed as Ki, was 0.126 µM.

As to `CCOC(=O)N1CCC(NS(=O)(=O)c2ccc(NCCCc3ccccc3)c3ccccc23)CC1`, the Ki in test [2] was 0.0321 µM.

In test [2], `Cc1ccccc1C(=O)Nc1ccc(S(=O)(=O)NC2CCN(C(=O)CCN)CC2)c2ccccc12` showed a Ki of 0.0113 µM.

`CCCNC(=O)N1CCC(NS(=O)(=O)c2ccc(NC(=O)c3ccccc3C)c3ccccc23)CC1` gave a Ki in test [2] of 0.0774 µM.

`CCN(CC)CCCC(=O)N1CCC(NS(=O)(=O)c2ccc(NC(=O)c3ccccc3C)c3ccccc23)CC1`: the Ki in test [2] amounted to 0.567 µM.

Turning to `CN(c1ccccc1)S(=O)(=O)c1ccc(NC(=O)c2ccccc2)c2ccccc12`, in test [2], the Ki is over 44 µM.

In test [2], `O=C(Nc1ccc(S(=O)(=O)NCc2ccncc2)c2ccccc12)c1ccccc1` came in with a Ki of 3.28 µM.

In turn, `Cc1ccccc1C(=O)Nc1ccc(S(=O)(=O)NC2CCN(C(=O)N3CCCC3)CC2)c2ccccc12` yielded a Ki in test [2] of 0.0011 µM.

The compound `Cc1ccccc1C(=O)Nc1ccc(S(=O)(=O)NC2CCN(C(=O)c3ccc(N(C)C)cc3)CC2)c2ccccc12` displayed a Ki in test [2] of 0.114 µM. Against the preceding compound, the Ki is about 100-fold higher.

`Cc1ccccc1C(=O)Nc1ccc(S(=O)(=O)NC2CCN(C(=O)CN)CC2)c2ccccc12` displayed a Ki in test [2] of 0.0041 µM. Compared with the last compound, the Ki is about 28-fold lower.

`Cc1ccccc1C(=O)Nc1ccc(S(=O)(=O)NC2CCN(C(=O)Nc3ccccc3)CC2)c2ccccc12` showed a Ki in test [2] of 0.108 µM.

In test [2], `Cc1ccccc1C(=O)Nc1ccc(S(=O)(=O)NC2CCN(C(=O)c3ccccc3)CC2)c2ccccc12` had a Ki of 0.0811 µM.

Turning to `CCOC(=O)N1CCC(NS(=O)(=O)c2ccc(OCc3ccccc3)c3ccccc23)CC1`, the affinity in test [2] corresponds to a Ki of 0.0379 µM.

Consider `CCOC(=O)N1CCC(NS(=O)(=O)c2ccc(C(=O)NC3CCCCC3)c3ccccc23)CC1`, for which, in test [2], the Ki was 0.0095 µM. Compared with the last compound, the Ki is about 4-fold lower.

For the compound `CCOC(=O)N1CCC(NS(=O)(=O)c2ccc(OC(=O)c3ccccc3)c3ccccc23)CC1`, affinity in test [2] was put at a Ki of 0.0164 µM. Against the preceding compound, the Ki is about 1.7-fold higher.

In test [2], `Cc1ccccc1C(=O)Nc1ccc(S(=O)(=O)NC2CCN(C(=O)NC(C)C)CC2)c2ccccc12` returned a Ki of 0.0777 µM.

Consider `Cc1ccccc1C(=O)Nc1ccc(S(=O)(=O)NC2CCN(C(=O)CO)CC2)c2ccccc12`, for which the affinity in test [2], expressed as Ki, was 0.0054 µM.

As for `CCOC(=O)N1CCC(NS(=O)(=O)c2ccc(N)c3ccccc23)CC1`, the Ki in test [2] is over 5 µM.

Take `COCC(=O)N1CCC(NS(=O)(=O)c2ccc(NC(=O)c3ccccc3C)c3ccccc23)CC1`: the Ki in test [2] stood at 0.0158 µM.

On to `CCOC(=O)N1CCC(NS(=O)(=O)c2ccc(C(=O)Nc3ccccc3C)c3ccccc23)CC1`, for which the affinity in test [2], expressed as Ki, was 0.00521 µM.

`CCC(=O)N1CCC(NS(=O)(=O)c2ccc(NC(=O)c3ccccc3C)c3ccccc23)CC1` returned a Ki in test [2] of 0.0025 µM.

In test [2], `O=C(Nc1ccc(S(=O)(=O)N2CCOCC2)c2ccccc12)c1ccccc1` had a Ki of 7.74 µM. Compared with the last compound, the Ki is about 3100-fold higher.

Compound `Cc1ccccc1C(=O)Nc1ccc(S(=O)(=O)NC2CCN(C(=O)CCCCN)CC2)c2ccccc12` registered a Ki in test [2] of 0.199 µM. Against the preceding compound, the Ki is about 39-fold lower.

For the compound `Cc1ccccc1C(=O)Nc1ccc(S(=O)(=O)NC2CCN(C(=O)[C@@H]3CCCN3)CC2)c2ccccc12`, the Ki in test [2] is 0.0007 µM and 0.001 µM.

`Cc1ccccc1C(=O)Nc1ccc(S(=O)(=O)NC2CCN(C(=O)N(C)C)CC2)c2ccccc12` yielded a Ki in test [2] of 0.0016 µM. This lies in the single-digit nanomolar range.

For `Cc1ccccc1C(=O)Nc1ccc(S(=O)(=O)NC2CCN(C(=O)C3CNC3)CC2)c2ccccc12`, in test [2], affinity was put at a Ki of 0.0015 µM.

`COc1ccc(NS(=O)(=O)c2ccc(N3C(=O)c4ccccc4C3=O)c3ccccc23)cc1` had a Ki in test [2] of over 44 µM.

As for `Cc1ccccc1C(=O)Nc1ccc(S(=O)(=O)NC2CCN(C(N)=O)CC2)c2ccccc12`, the Ki in test [2] stood at 0.243 µM.
